The values below come from patent publication US9688684B2, “Substituted tetrazolo[1,5-a]pyrazines as ROR-gamma inhibitors” (Merck Patent GmbH, priority 2013, dated 2017).

The target in assay [1] is RORγ Ligand binding domain (RORγ-LBD, aa 238-497, NP_001001523) (Homo sapiens (Human), UniProt P51449). The assay can be described thus: ROR γ GAI4 Reporter Gene Assay (Mammalian one-hybrid, M1H) in 293T cells. Format: cell-based. From the text:
ROR γ GAI4 Reporter Gene Assay
A Mammalian one-hybrid system is used to perform a cell-based functional transactivation assay for detecting RORγ activity modulators.
The Mammalian-1-Hybrid is derived from the Mammalian-2-Hybrid setup. Whereas in the latter, the binding partners are defined in their role as interaction, transactivation and DNA-binding components, the Mammalian-1-Hybrid makes use of the fact that all mammalian cell types express a set of Nuclear Receptors and their associated cofactors. […] A Gal4 minimal promoter driven luciferase construct (pFR-Luc from Stratagene, containing a synthetic promoter with five tandem repeats of the yeast GAL4 binding sites controlling expression of the Photinus pyralis luciferase gene) is used as reporter. The Gal4-DBD-NR-LBD fusion protein by itself cannot initiate transcription and is dependent on the presence of cofactors present in the cellular system used.
In order to rule out cytotoxic and unspecific transcriptional compound effects a transfection with a firefly luciferase driven by the constitutive CMV promoter is performed in parallel.
After transfection 18 μl complete MEM medium containing 3% charcoal-dextran treated FBS is added as well as 4 μl test compounds (DMSO stocks prediluted in OptiMem (Invitrogen)) followed by incubation for 16-24 h at 37° C., 5% CO2 and 90% rH.
Firefly luciferase activity is measured using the Promega ONE-Glo™ Luciferase Assay System.
In general terms: Reporter assays use an easily measured gene product as a stand-in for the process of interest.

The target of assay [2] is human RORγ ligand binding domain (GST-hRORγ-LBD) (Homo sapiens (Human), UniProt P51449). The assay can be described thus: TR-FRET assay (biochemical cofactor interaction assay, GST-hRORγ-LBD / TRAP220 peptide). From the text:
RORγ is an orphan member of the nuclear receptor (NR) family displaying constitutive activity. The activity of nuclear receptors can be modulated by ligand-induced cofactor protein interactions. For example, agonist binding leads to recruitment of coactivator protein, and antagonist binding either blocks coactivator interaction or facilitates the recruitment of corepressors. […] The conformational change induced by ligand binding influences interactions with LXXLL motif peptides.
RORγ (t) is a thymus-specific isoform of RORγ which is widely expressed. It shares the same ligand binding domain (LBD) sequence with RORγ. Thus, a screen using the LBD will yield antagonists targeting both RORγ and RORγt.
In order to identify compounds which block activity of the human nuclear receptor Retinoid-related Orphan Receptor gamma (RORγ) a biochemical cofactor interaction assay based on the TR-FRET principle is performed. […] The ligand-binding domain (LBD) of RORγ is expressed as fusion protein with GST in […] cells using the vector pDEST15. Cells are lysed by lysozyme-treatment and sonication, and the fusion proteins purified over glutathione sepharose (Pharmacia) according to the manufacturers instructions. The strong constitutive interaction is disrupted upon binding of functional antagonists. The strength of the interaction is monitored by TR-FRET between streptavidine APC interacting with the biotinylated peptide and Europium-labelled Anti-GST.
(In general: TR-FRET usually uses a lanthanide donor and a delayed reading to cut background.)

A word on the IC50: it is the concentration that gives 50% inhibition. Lower therefore signals higher potency.

Chain of human RORγ ligand binding domain (GST-hRORγ-LBD) (P51449 269-508): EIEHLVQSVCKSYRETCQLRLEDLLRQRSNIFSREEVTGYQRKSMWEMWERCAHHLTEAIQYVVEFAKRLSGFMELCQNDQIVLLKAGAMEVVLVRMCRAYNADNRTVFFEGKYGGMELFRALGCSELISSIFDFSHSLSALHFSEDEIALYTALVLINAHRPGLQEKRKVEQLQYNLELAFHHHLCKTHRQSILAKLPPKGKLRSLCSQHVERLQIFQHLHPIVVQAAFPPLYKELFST
Chain of RORγ Ligand binding domain (RORγ-LBD, aa 238-497, NP_001001523) (P51449 259-518): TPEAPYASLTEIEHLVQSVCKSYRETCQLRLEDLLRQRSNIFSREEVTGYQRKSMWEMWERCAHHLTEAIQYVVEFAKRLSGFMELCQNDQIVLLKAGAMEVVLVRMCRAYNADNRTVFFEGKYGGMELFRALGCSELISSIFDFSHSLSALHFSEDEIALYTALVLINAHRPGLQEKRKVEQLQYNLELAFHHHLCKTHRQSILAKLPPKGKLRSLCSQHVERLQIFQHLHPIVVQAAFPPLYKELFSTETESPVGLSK

`CC(C)c1nn(-c2ccccc2)cc1C1c2nnnn2CCN1C1CCCCC1` (stereo not drawn) [Compound 114, 7-Cyclohexyl-8-(3-isopropyl-1-phenyl-1H-pyrazol-4-yl)-5,6,7,8-tetrahydro-tetrazolo[1,5-a]pyrazine]: the IC50 was in the range of 9.9 to 40 µM in assay [1] and 0.99 to 9.9 µM in assay [2].

In the case of `Cc1cccc(CN2CCn3nnnc3C2c2cccc(F)c2)c1` (stereo not drawn) [Compound 116, 8-(3-Fluoro-phenyl)-7-(3-methyl-benzyl)-5,6,7,8-tetrahydro-tetrazolo[1,5-a]pyrazine], the IC50 in assay [1] and in assay [2] was 0.99 to 9.9 µM throughout.

As to `Fc1cccc(C2c3nnnn3CCN2Cc2cccs2)c1` (stereo not drawn) [Compound 117, 8-(3-Fluoro-phenyl)-7-thiophen-2-ylmethyl-5,6,7,8-tetrahydro-tetrazolo[1,5-a]pyrazine], the IC50 in assay [1] was in the range of 9.9 to 40 µM; in assay [2], 0.99 to 9.9 µM.

Turning to `Fc1ccccc1C1c2nnnn2CCN1Cc1cccc(Br)c1` (stereo not drawn) [Compound 119, 7-(3-Bromo-benzyl)-8-(2-fluoro-phenyl)-5,6,7,8-tetrahydro-tetrazolo[1,5-a]pyrazine], the IC50 in assay [1] and in assay [2] was 0.99 to 9.9 µM each time.

As to `Fc1ccc(C2c3nnnn3CCN2Cc2cccs2)cc1` (stereo not drawn) [Compound 125, 8-(4-Fluoro-phenyl)-7-thiophen-2-ylmethyl-5,6,7,8-tetrahydro-tetrazolo[1,5-a]pyrazine], the values for the IC50 in assay [1] and in assay [2] were 9.9 to 40 µM and 0.99 to 9.9 µM, respectively.

With `COc1ccc(OC)c(C2c3nnnn3CCN2Cc2ccc(F)cc2)c1` (stereo not drawn) [Compound 128, 8-(2,5-Dimethoxy-phenyl)-7-(4-fluoro-benzyl)-5,6,7,8-tetrahydro-tetrazolo[1,5-a]pyrazine], the IC50 in assay [1] is 9.9 to 40 µM; in assay [2], 0.99 to 9.9 µM.

With `CC(C)Oc1ccc(C2c3nnnn3CCN2Cc2ccc3c(c2)OCO3)cc1` (stereo not drawn) [Compound 131, 7-Benzo[1,3]dioxol-5-ylmethyl-8-(4-isopropoxy-phenyl)-5,6,7,8-tetrahydro-tetrazolo[1,5-a]pyrazine], the IC50 in assay [1] fell in the range of 9.9 to 40 µM; in assay [2], 0.99 to 9.9 µM.

Take `Fc1ccc(CN2CCn3nnnc3C2c2ccc3c(c2)OCCO3)cc1` (stereo not drawn) [Compound 133, 8-(2,3-Dihydro-benzo[1,4]dioxin-6-yl)-7-(4-fluoro-benzyl)-5,6,7,8-tetrahydro-tetrazolo[1,5-a]pyrazine]: the values for the IC50 in assay [1] and in assay [2] were 9.9 to 40 µM and 0.99 to 9.9 µM, respectively.

As for `CCOc1ccc(C2c3nnnn3CCN2Cc2ccc(F)cc2)cc1` (stereo not drawn) [Compound 134, 8-(4-Ethoxy-phenyl)-7-(4-fluoro-benzyl)-5,6,7,8-tetrahydro-tetrazolo[1,5-a]pyrazine], the figures for the IC50 in assay [1] and in assay [2] were 9.9 to 40 µM and 0.99 to 9.9 µM, respectively.

As for `Cc1cccc(CN2CCn3nnnc3C2c2ccc(F)cc2F)c1` (stereo not drawn) [Compound 136, 8-(2,4-Difluoro-phenyl)-7-(3-methyl-benzyl)-5,6,7,8-tetrahydro-tetrazolo[1,5-a]pyrazine], the IC50 in assay [1] was in the range of 9.9 to 40 µM; in assay [2], 0.99 to 9.9 µM.

On to `Fc1ccccc1C1c2nnnn2CCN1Cc1cccs1` (stereo not drawn) [Compound 137, 8-(2-Fluoro-phenyl)-7-thiophen-2-ylmethyl-5,6,7,8-tetrahydro-tetrazolo[1,5-a]pyrazine], for which the IC50 in assay [1] was in the range of 9.9 to 40 µM; in assay [2] it was 0.99 to 9.9 µM.

With `Cc1ccc(CN2CCn3nnnc3C2c2ccc(OC(C)C)cc2)o1` (stereo not drawn) [Compound 142, 8-(4-Isopropoxy-phenyl)-7-(5-methyl-furan-2-ylmethyl)-5,6,7,8-tetrahydro-tetrazolo[1,5-a]pyrazine], the IC50 in assay [1] and in assay [2] was 9.9 to 40 µM in each case.

Consider `COc1ccc(C2c3nnnn3CCN2Cc2ccc(F)cc2)cc1` (stereo not drawn) [Compound 146, 7-(4-Fluoro-benzyl)-8-(4-methoxy-phenyl)-5,6,7,8-tetrahydro-tetrazolo[1,5-a]pyrazine], for which the IC50 in assay [1] fell in the range of 0.99 to 9.9 µM; in assay [2], 9.9 to 40 µM.

For the compound `CC(C)c1nn(-c2ccccc2)cc1C1c2nnnn2CCN1Cc1cnn2ccccc12` (stereo not drawn) [Compound 154, 8-(3-Isopropyl-1-phenyl-1H-pyrazol-4-yl)-7-pyrazolo[1,5-a]pyridin-3-ylmethyl-5,6,7,8-tetrahydro-tetrazolo[1,5-a]pyrazine], the values for the IC50 in assay [1] and in assay [2] were 0.99 to 9.9 µM and 9.9 to 40 µM, respectively.

Consider `Cc1c(CN2CCn3nnnc3C2c2cn(-c3ccccc3)nc2C(C)C)cnn1C` (stereo not drawn) [Compound 156, 7-(1,5-Dimethyl-1H-pyrazol-4-ylmethyl)-8-(3-isopropyl-1-phenyl-1H-pyrazol-4-yl)-5,6,7,8-tetrahydro-tetrazolo[1,5-a]pyrazine], for which the IC50 in assay [1] and in assay [2] was 9.9 to 40 µM throughout.

With `CC(C)(C)c1nn(Cc2ccccc2)cc1C1c2nnnn2CCN1Cc1cccs1` (stereo not drawn) [Compound 160, 8-(1-Benzyl-3-tert-butyl-1H-pyrazol-4-yl)-7-thiophen-2-ylmethyl-5,6,7,8-tetrahydro-tetrazolo[1,5-a]pyrazine], the IC50 in assay [1] lay within 0.99 to 9.9 µM; in assay [2], 9.9 to 40 µM.

Consider `CC(C)c1nn(-c2ccccc2)cc1C1c2nnnn2CCN1Cc1cnn(Cc2ccccc2)c1` (stereo not drawn) [Compound 161, 7-(1-Benzyl-1H-pyrazol-4-ylmethyl)-8-(3-isopropyl-1-phenyl-1H-pyrazol-4-yl)-5,6,7,8-tetrahydro-tetrazolo[1,5-a]pyrazine], for which the IC50 in assay [1] and in assay [2] was 0.99 to 9.9 µM each time.

Turning to `Fc1cccc(C2c3nnnn3CCN2Cc2cccc(Br)c2)c1` (stereo not drawn) [Compound 163, 7-(3-Bromo-benzyl)-8-(3-fluoro-phenyl)-5,6,7,8-tetrahydro-tetrazolo[1,5-a]pyrazine], the IC50 in assay [1] is 9.9 to 40 µM; in assay [2] it was 0.01 to 0.99 µM.
